From patent US20020107193A1, “Therapeutic uses for IP3 receptor-mediated calcium channel modulators” (priority 2000, published 2002)

What was measured:
[1] = system: IP3 receptors on microsomes; test: Microsome extract (MSE) effect on cytoplasmic NF-κB binding activity; format: biochemical, rat
Method: Cerebral cortices from adult female Sprague-Dawley rats were homogenized (20 strokes at 300 rpm) with a Teflon homogenizer in ice-cold buffer containing 1 mM EDTA, 0.32 M sucrose, 0.1 mM dithiothreitol and 1 mM HEPES as described previously (Chen et al., 1998, Diabetes 47:874-81) and cytoplasmic and microsome fractions were isolated by differential centrifugation. Briefly, tissue fragments and cellular debris were removed by centrifugation at 500 g for 10 min and supernatants were centrifuged at 20,000 g for 20 min to pellet intact mitochondria and nuclei. The supernatant was then centrifuged at 100,000 g for 1 h in order to obtain the cytoplasmic fraction and the microsomal pellet enriched in endoplasmic reticulum and golgi membranes. Microsome extracts (MSE) were prepared by suspending microsomes in 1:100 v/v ice-cold buffer and centrifuging at 100,000× g for 1 hr. Microsomes were then re-suspended in 1:2 v/v volume buffer and treated as described below. At the end of the treatment, the suspension was centrifuged at 100,000 g for 1 h, and supernatants were used as MSE. For experiments involving incubation of MSE with cytoplasmic extract, 3 μl of MSE were added to 10 μl cytoplasmic extract and mixtures were incubated at room temperature for 1 h.
[…] After 1 h at room temperature, samples were examined for NF-κB binding activity.
Indeed, the role calcium plays in this paradigm seems to be as an intraluminal signal.

[2] = system: macrophage-tropic CCR5-utilizing HIV CSF; test: p24 antigen in media of HIV-infected peripheral blood lymphocytes; format: cell-based; conditions: for p24 levels, of controls: day 2
Method: Peripheral blood lymphocytes, previously stimulated for 72 hours with PHA, were divided into 3 groups, designated T-HIV (RPMI-10 media containing 1 μM XeC and 0.1% DMSO), N-HIV (RPMI-10 media containing 0.1% DMSO) and HIV (RPMI-10 media). […] The cells were then infected with a macrophage-tropic CCR5-utilizing HIV CSF for 3 hours at 37° and then washed to remove excess virus. All groups were cultured in RPMI-10% FCS+10U/ml IL-2. Referring to FIGS. 7-11, cells were incubated at 37° C. in 5% CO2. At stated time points shown in the aforementioned figures, spent media was removed and replace with fresh media. The media was tested for the presence of p24 antigen as a surrogate for HIV infection and replication. […] The significance of using the CCR5 utilizing macrophage-tropic virus JR-CSF is that this is the type of virus generally transmitted sexually.

[Ca^2+]i = Intracellular calcium increase caused by glutamate in neurons; format: cell-based; conditions: XeC treatment; data not shown
Source text: Therefore, all inducers of NFκB tested here have in common the ability to initiate calcium release through ER IP3 receptors, either through increasing intracellular calcium, activating production of IP3, or both.

immune cell line = test: Proinflammatory cytokine production in an immune cell line; format: cell-based
IP3 receptor = conditions: Gafni et al., 1997; cited from earlier work
cardiac cells = conditions: Hu et al., 1999, cited from earlier work

Question: With `C1CCC[C@H]2CCCN3CC[C@@H](CCCCCC[C@@H]4CCCN5CC[C@@H](CC1)O[C@@H]45)O[C@@H]23` [XeC, Xestospongin C] as the molecule, how does the “NF-κB stimulating activity of microsomes pretreated then given calcium” value ([1]; XeC pretreatment followed by calcium) read?
Answer: produced no NF-κB stimulating activity

Question: And the “effect of microsome pretreatment on IP3-induced NF-κB stimulating properties of MSE” value ([1]; XeC pretreatment of microsomes)?
Answer: completely abolished this effect

Question: What about the “p24 antigen as surrogate for HIV infection and replication, relative to DMSO” value ([2]; 1 μM XeC, 0.1% DMSO, overall statement) of the same molecule?
Answer: inhibition

Question: And the “p24 levels, of controls” value ([2]; X1: XeC once 2 hours pre-infection, FIG. 7)?
Answer: ~50%

Question: What about the p24 levels ([2]; X1: XeC once 2 hours pre-infection, day 3, FIG. 7) of the same molecule?
Answer: increased to approximately control levels

Question: And the p24 levels ([2]; X1: XeC once pre-infection, day 3, third experiment, FIG. 10)?
Answer: reduced relative to D1 and D2

Question: What about the p24 levels ([2]; X1: XeC once pre-infection, day 4, third experiment, FIG. 10) of the same molecule?
Answer: increased to near control levels

Question: What about the p24 levels ([2]; X1: XeC once pre-infection, subsequent experiment, FIG. 8) of the same molecule?
Answer: no effect was seen

Question: And the “p24 levels, of controls” value ([2]; X2: XeC 2 hours pre-infection and 6 hours post-infection, FIG. 7)?
Answer: approximately 80%

Question: What about the p24 levels ([2]; X2: XeC pre- and post-infection, day 3, FIG. 7) of the same molecule?
Answer: increased to approximately control levels

Question: And the p24 levels ([2]; X2: XeC pre- and post-infection, day 3, third experiment, FIG. 10)?
Answer: reduced relative to D1 and D2

Question: And the p24 levels ([2]; X2: XeC pre- and post-infection, day 4, FIG. 9)?
Answer: increase to near wild-type levels

Question: What about the “p24 levels, of the DMSO controls” value ([2]; X2: XeC pre- and post-infection, day 4, third experiment, FIG. 10) of the same molecule?
Answer: approximately 50%

Question: What about the p24 levels ([2]; X2: XeC pre- and post-infection, days 2 and 3, subsequent experiment, FIG. 8) of the same molecule?
Answer: greatly reduced

Question: What about the “increase in [Ca^2+]i caused by glutamate” value ([Ca^2+]i) of the same molecule?
Answer: did not erase the increase

Question: And the proinflammatory cytokine production (immune cell line)?
Answer: inhibited

Question: And the “block of IP3-mediated calcium release” value (IP3 receptor)?
Answer: potent blockers

Question: And the “frequency of calcium oscillations” value (cardiac cells)?
Answer: decreased the frequency

Question: And the NF-κB activity (cardiac cells; histamine stimulation)?
Answer: parallel decrease
